Test results published in article PMC8026479 (Cancer Chemotherapy and Pharmacology, 2021).

What was measured:
[1] = cited from earlier work
[2] = test system: transition rate constant from G1 to cycling for HSPCs; test: Semi-mechanistic multi-compartment PK/PD model of hematopoiesis; parameters: species or system mouse, rat, and dog; details: conservative modification of literature estimate; elimination rate constant 1/h
Source text: Owing to the invasive nature of the PD marker collection (i.e. bone marrow aspiration), a semi-mechanistic PK/PD model based on animal PK/PD data and human PK data was developed to guide the selection of an optimal dose level for bone marrow aspiration in humans during dose escalation in the Phase I first-in-human study. The model was constructed using PK data from four species (mouse, rat, dog, and human) and PD data from three species (mouse, rat, and dog; Online Resources 1 and 2).
The PK/multi-compartment PD model was based on a myelosuppression model previously published by Friberg et al., with modifications. […] In the model used in the current study, stem cells and progenitor cells were separated into two compartments, with experimental data measured for each compartment. […] Another important deviation from the Friberg model was the mechanism postulated for the homeostasis of the […] (PMNs). We postulated that the feedback mechanism has a set point target and that deviations from that target would accelerate (in the case of too few PMNs) or decelerate (in the case of too many PMNs) the transition of G1-phase cells to S-phase cells in the stem cell population.
The model was constructed in two stages. First, preclinical PK data (e.g. doses, routes, and schedule of administration, observed concentrations) were compiled and modeled by allometric scaling. A sequential PK/PD modeling approach (population PK parameters and data approach) was then employed in which a semi-mechanistic PD model with various physiological compartments was created, and specific assumptions entered (Online Resource 3). Traditional forward addition/backward elimination was used for PK modeling. […] Many parameters in this complex model could not be estimated and were fixed either to the literature values or values selected on the basis of discussions with domain experts and sensitivity analysis. In preclinical animal models, the PD analysis modeled bone marrow cells positive for 5′-ethynyl-2′-deoxyuridine (EdU) and peripheral neutrophil counts simultaneously. […]

For `O=c1[nH]cc(F)c(=O)[nH]1` [5-FU, 5-fluorouracil, reference compound], the “half-life of 5-FU, literature estimate” value [1] is given as 8 to 20 min and the “pharmacologic activity half-life of 5-FU” value [2] is given as 42 min.
